{"source": "patent US20030176445A1", "about": "“Substituted 1,4-dihydropyridine compounds as bradykinin antagonists” (Pfizer Inc., priority 1999, published 2003)", "note": "Structures can show the parent of a compound that is named as a salt.", "data": [{"values": [{"smiles": "CCCCC1(O)C2CCC1CC(N1CCN(C(=O)CC3=C(C(=O)OC)C(c4c(Cl)cccc4Cl)C(C(=O)OC)=C(CCc4nccs4)N3)CC1)C2", "note": "(stereo not drawn) (as salt: hydrochloride) [Example 6, Dimethyl 4-(2,6-dichlorophenyl)-2-[2-[4-(8-butyl-8-hydroxybicyclo[3.2.1]oct-3-yl)-1-piperazinyl]-2-oxoethyl]-6-[2-(1,3-thiazol-2-yl)ethyl]-1,4-dihydro-3,5-pyridinedicarboxylate]", "melting point": "174 to 177 °C (dec.)"}, {"smiles": "COC(=O)C1=C(CCc2nccs2)NC(CC(=O)N2CCN(C3CC4CC(=O)CC4C3)CC2)=C(C(=O)OC)C1c1c(Cl)cccc1Cl", "note": "(stereo not drawn) (as salt: hydrochloride) [Example 10, Dimethyl 4-(2,6-dichlorophenyl)-2-[2-oxo-2-[4-(5-oxooctahydro-2-pentalenyl)-1-piperazinyl]ethyl]-6-(2-(1,3-thiazol-2-yl)ethyl)-1,4-dihydro-3,5-pyridinedicarboxylate]", "melting point": "214 to 220 °C (dec.)"}, {"smiles": "COC(=O)C1=C(CCc2nccs2)NC(CC(=O)N2CCN(C3CC4CCC(C3)C4(O)C(C)C)CC2)=C(C(=O)OC)C1c1c(Cl)cccc1Cl", "note": "(stereo not drawn) (as salt: hydrochloride) [Example 7, Dimethyl 4-(2,6-dichlorophenyl)-2-[2-[4-(8-hydroxy-8-isopropylbicyclo[3.2.1]oct-3-yl)-1-piperazinyl]-2-oxoethyl]-6-[2-(1,3-thiazol-2-yl)ethyl]-1,4-dihydro-3,5-pyridinedicarboxylate]", "melting point": "178 to 180 °C (dec.)"}]}]}
